Results from patent US12152008B2, “Cyclopentaimidazolones for the treatment of cancer” (The Broad Institute, Inc., priority 2018, dated 2024).

Key:
Format in all cases: cell-based
[1] = tested on: PF0202 patient-derived organoid; experiment: Patient-derived organoid viability screen, IC50; conditions: read-out: IC50 PF 0202
Method: (§1) Compounds were tested on patient-derived tumor organoids. Such organoids retain the three-dimensional structure of the tissue providing conditions that are more representative of in vivo behavior. Such organoids are described by Boj, Sylvia, et al., Cell 160: 324 (2015), hereby incorporated by reference in its entirety. Briefly, cultures of primary and metastatic pancreatic tumor specimens as patient-derived xenografts, 3D tumor organoids, and patient-derived cell lines were produced including a cohort of 21 patient-derived xenografts and 67 organoid cultures from primary and metastatic pancreatic tumor specimens. The functional dependencies of compounds in these patient-derived samples were measured on a 3D organoid and its matched 2D patient-derived cell lines. Conditions were optimized for performing high-throughput compound screening of 3D organoids, including suspension culture with Matrigel in 384-well plates, viability assessment with CellTiter-Glo 3D. […] FIG. 2A illustrates the dose dependent responses of an enantioenriched sample of Compound E1 synthesized using an enantio-purified sample of E1 in the (R,R)-configuration (70% ee) (e.g., E1(R,R)), an enantioenriched sample of E1 (“E1(S,S)”), and racemic mixtures of E1 on NCIH2405 cells (“E1”).
(§2) Table 1 gives the IC50 values (μM) of compounds having the structure of formula (I) (including E1(S,S) and E1(Rac) in patient-derived organoids and several cell lines. Compounds E1-E12 were synthesized as described above as racemates (i.e., E1(Rac)-R12(Rac), and E1(S,S) and E1(R,R) were synthesized using the (S,S)-5 reagent or (R,R)-5 reagent, respectively, as described above.

[2] = tested on: PF0172_T2 patient-derived organoid; experiment: Patient-derived organoid viability screen, IC50; conditions: read-out: IC50 PF 0172_T2
Method: as §1, §2

[3] = tested on: PF0039 patient-derived organoid; experiment: Patient-derived organoid viability screen, IC50; conditions: read-out: IC50 PF 0039
Method: as §1, §2

PaTu 8902 = experiment: Cell line viability screen, IC50 (CellTiter-Glo 3D); conditions: PaTu 8902 cell line
Method: as §1, §2

BxPC-3 = experiment: as above; conditions: BxPC3 cell line
Method: as §1, §2

NCIH2405 cells = experiment: as above; conditions: read-out: IC50 NCIH 2405
Method: as §1, §2

OV-90 = experiment: as above; conditions: OV90 cell line
Method: as §1, §2

[4] = tested on: patient derived organoids and cell lines; experiment: Organoid and cell line screen, panel (FIG. 1); conditions: organoids PF0039, PF0071, PF0172-T2, PF0202, cell lines PaTu 8902, BxPC-3, NCIH2405, OV-90
Method: as §1

PF0071 organoids = experiment: PF0071 sensitivity screen (organoid dose response); parameters: key: Active: the analog typically with the lower IC50 value was identified as “active”; Inactive: the analog with the higher IC50 value was identified as “inactive.”; conditions: optically pure enantiomers
Method: as §1
E1(Rac), E5(Rac), and E8(Rac) were synthesized as racemic mixtures (i.e., without a chiral catalyst) and separated into six optically pure compounds.
With the absolute stereochemistry identified, the correlation between specific isomer and activity was determined for PF0071 organoids. Table 2 compares the activities of each set of racemates that were measured as compared to the designations illustrated in FIG. 2B.
The response to dose of several compounds (including a linkered analog) on PF0071 organoids were run. Enantiomers of E1, E5, and E8 were tested and compared to results with a linked compound synthesized as a racemic mixture as described above (identified in FIG. 3 as “Linked E1(Rac)”) having the structure: […]

Row | IC50 (BxPC-3) [µM] | Compound | IC50 [1] [µM] | IC50 [2] [µM] | IC50 [3] [µM] | IC50 (PaTu 8902) [µM] | IC50 (NCIH2405 cells) [µM] | IC50 (OV-90) [µM] | Effect on viability across panel [4] | Activity (active or inactive) (PF0071 organoids)
1 | > 100 | COC1C=CC2C1N(CC(C)C)C(=O)N2c1ccccc1 (racemic) [Compound E1] | 55.4 | 3.41 | 22.3 | > 100 | 7.41 | > 100 | dose-dependent effect on only a subset of organoids | –
2 | > 100 | CC(C)CN1C(=O)N(c2ccccc2)C2C=CC(O)C21 (racemic) [E2(Rac)] | > 100 | 4.05 | 31.7 | > 100 | > 100 | > 100 | – | –
3 | > 100 | COC1C=CC2C1N(C)C(=O)N2c1ccccc1 (racemic) [E3(Rac)] | > 100 | 85.8 | > 100 | > 100 | > 100 | > 100 | – | –
4 | 96.4 | CCOC1C=CC2C1N(CC(C)C)C(=O)N2c1ccccc1 (racemic) [E4(Rac)] | 40.2 | 3.4 | 25.8 | > 100 | 14.3 | 76.9 | – | –
5 | 64.4 | COC1CCC2C1N(CC(C)C)C(=O)N2c1ccccc1 (racemic) [E5(Rac)] | 16.5 | 1.16 | 7.26 | > 100 | 4.11 | 83.3 | – | –
6 | > 100 | COC1C=CC2C1N(CC(C)C)C(=O)N2Cc1ccccc1 (racemic) [E6(Rac)] | 65.3 | 17.4 | 40.7 | > 100 | > 100 | 96.4 | – | –
7 | > 100 | COC1C=CC2C1N(CC(C)C)C(=O)N2c1ccc(C#N)cc1 (racemic) [E7(Rac)] | ≥ 100 | > 100 | > 100 | 75.1 | > 100 | > 100 | – | –
8 | 17.3 | COC1C=CC2C1N(CC(C)C)C(=O)N2c1ccc(Cl)cc1 (racemic) [E8(Rac)] | 27.9 | 2.15 | 8.19 | 33.9 | 2.58 | 30.7 | – | –
9 | 56.4 | COc1ccc(N2C(=O)N(CC(C)C)C3C(OC)C=CC32)cc1 (racemic) [E9(Rac)] | 47.1 | 88.6 | 43.5 | 76.8 | 58.8 | 65.5 | – | –
10 | 66.6 | COC1C=CC2C1N(CC(C)C)C(=O)N2c1cccc(F)c1 (racemic) [E10(Rac)] | 36.9 | 2.22 | 8.14 | > 100 | 3.44 | 83.9 | – | –
11 | > 100 | COC1C=CC2C1N(CC(C)C)C(=O)N2c1ccc(F)cc1 (racemic) [E11(Rac)] | 49.5 | 4.08 | 28.2 | > 100 | 10.2 | 93.6 | – | –
12 | > 100 | COC1C=CC2C1N(CC(C)C)C(=O)N2c1ccc(C)cc1 (racemic) [E12(Rac)] | 51.4 | 1.21 | 7.42 | > 100 | 2.04 | 85.9 | – | –
13 | – | CO[C@@H]1CC[C@@H]2[C@H]1N(CC(C)C)C(=O)N2c1ccccc1 (stereo in doubt) | – | – | – | – | – | – | – | Active
14 | – | CO[C@H]1CC[C@H]2[C@@H]1N(CC(C)C)C(=O)N2c1ccccc1 (stereo in doubt) | – | – | – | – | – | – | – | Inactive
15 | – | CO[C@@H]1C=C[C@@H]2[C@H]1N(CC(C)C)C(=O)N2c1ccccc1 (stereo in doubt) | – | – | – | – | – | – | – | Active
16 | – | CO[C@H]1C=C[C@H]2[C@@H]1N(CC(C)C)C(=O)N2c1ccccc1 (stereo in doubt) | – | – | – | – | – | – | – | Inactive
17 | – | CO[C@@H]1C=C[C@@H]2[C@H]1N(CC(C)C)C(=O)N2c1ccc(Cl)cc1 (stereo in doubt) | – | – | – | – | – | – | – | Active
18 | – | CO[C@H]1C=C[C@H]2[C@@H]1N(CC(C)C)C(=O)N2c1ccc(Cl)cc1 (stereo in doubt) | – | – | – | – | – | – | – | Inactive
